These results are taken from publication PMC12128024, “Copper(II) Cyclopeptides with High ROS-Mediated Cytotoxicity” (Bioconjugate Chemistry, 2025).

As a reminder, the IC50 is the concentration that inhibits the measured activity by half.

Molecules are shown by their SMILES. *1 amine or outer side, *2 acyl side, *3 side chain or, on linkers, in order; H or OH if unused. Where a SMILES comes first, the peptide text is derived from it. [ ]: non-standard residue; d: D form. X1 = O=C(c1ccc(-c2ccc(N[*:1])cn2)nc1)[*:2]; βAla = NCCC(=O)O

In assay [1] the test system is nontransformed lung fibroblast (MRC-5). The settings on record: 48 h.
Source text: (§1) IC50 is the concentration at which 50% growth inhibition is obtained and E max represents the efficacy of the compound at its maximum concentration, expressed as the maximum % cell inhibition achieved by the compound (see Section S6 and Figure S8 of the Supporting Information).
(§2) General method: cell lines and grown conditions
(§3) Non-small lung carcinoma NCI-H460, human colon carcinoma HCT-116, human glioma SF-268
(§4) and doxorubicin-resistance human mamma carcinoma NCI/ADR-RES cell lines, as well as
(§5) Eagle’s Minimal Essential Medium (EMEM) and RPMI1640 were purchased from the American Tissue Culture Collection (ATCC). Frozen cells were thawed in a 75 cm2 cell culture flask in RPMI
(§6) supplemented with 2 mM L-glutamine and 10% FBS and maintained at 37 °C in a 5% CO2
(§7) The inhibition of cell proliferation induced by the samples [1/Cu(II), 1 eq. cyclopeptide 1/3 eq. of
(§8) Cu(II); 2/Cu(II), 1 eq. cyclopeptide 2/5 eq. of Cu(II)]‚ was carried out by using MTT method for
(§9) HCT-116, NCI/ADR-RES and NCI-H460 cell lines. SF-268 cell growth inhibition induced by the
(§10) samples was assessed using a system based on crystal violet cell staining and subsequent
(§11) acetylation. Cells were seeded in a 96-well microplate (5000 cells/well for HCT-116, 10000
(§12) cells/well for SF-268 and 15000 cells/well for NCI/ADR-RES and NCI-H460 cell lines) in 100 μl
(§13) of growth medium and maintained at 37 °C for 24 h.
(§14) Then growth medium was replaced by fresh medium containing different concentrations of the
(§15) samples to be assayed and maintained at 37 °C in a 5% CO2 atmosphere for 48 h. After this
(§16) time, 10 μL MTT (5 mg/ml in PBS) were added to each well and maintained for 4 h at 37 °C in a
(§17) 5% CO2 atmosphere. Then 100 μL of 10% SDS in 0.01 M HCl were added to each well an
(§18) incubated for 12-14 h under the same experimental conditions. Absorbance due to formation
(§19) was detected in a Tecan infinity M1000 Pro reader using a wavelength of 595 nm. All assays
were performed with triplicate points.
b) Crystal violet cell staining
(§20) The samples dissolved in water were added, maintaining the same proportion of water in each
(§21) well (10%). After 72 h (at 37°C and in an atmosphere of 5% CO 2/95% air), the cells were fixed to
(§22) the plate with 10 μL of 11% glutaraldehyde solution, kept under agitation at room temperature,
(§23) for 15 minutes. Once fixed, the medium was removed and the cells were washed 3-4 times with
(§24) distilled water, followed by staining of the cells with 100 μL of a 0.1% crystal violet solution. This
(§25) solution was prepared by diluting 0.1g of crystal violet in 100 mL of buffer composed of 200 mM
(§26) phosphoric acid, 200 mM formic acid and 200 mM 2-(N-morpholino)-ethane sulphonic acid
(§27) (MES) at pH 6. The plate was kept shaking at room temperature for 15 minutes. The dye was
(§28) removed, washed 3-4 times with distilled water and dried. 100 μL of 10% acetic acid was then
(§29) added and kept under agitation for 15 minutes, at room temperature, so that the staining was
(§30) homogeneous in all wells. Finally, an absorbance reading of the plates was performed at a
(§31) wavelength of 595 nm (Tecan M1000 Infinite Pro). The assay was performed with triplicate points.
(§32) Data were expressed as the growth inhibition percentage calculated in basis on the equation: %
(§33) inhibition= 100 – [(AO × 100) / AT]. Where AT is the measured absorbance in wells containing
(§34) compounds and AO is the absorbance measured in blank wells (cells with medium and vehicle).
(§35) The inhibitory potency of compounds was calculated by constructing concentration-% growth
(§36) inhibition curves, and extrapolating IC50 values (concentration of compound that inhibits cells
Assay [2] deals with NCI-H460 (lung carcinoma). Conditions: 48 h.
Source text: as §1, §2, §3, §4, §5, §6, §7, §8, §9, §10, §11, §12, §13, §14, §15, §16, §17, §18, §19
were performed with triplicate points.
b) Crystal violet cell staining
as §20, §21, §22, §23, §24, §25, §26, §27, §28, §29, §30, §31, §32, §33, §34, §35, §36
For assay [3], the system named is NCI/ADR-RES cells. Nature of the assay: ICP-MS internalization study (intracellular Cu accumulation). In kind it is cell-based. The settings on record: 1 µM compound, 48 h, metallopeptides 1 eq. cyclopeptide + 1 eq. Cu(II). As to the method:
To evaluate the ability of the Cu(II) metallopeptide systems to internalize in cancer cells, ICP-MS studies were performed in NCI/ADR-RES cells after 48 h of incubation with cyclopeptides 1 and 2, as well as their corresponding 1/Cu(II) and 2/Cu(II) metallopeptide derivatives formed by mixing each cyclopeptide with 1 equiv Cu(II), and using CuCl2·2H2O both as a Cu(II) source and a control.
7.1. General methods and materials
ICP Measurements were conducted employing an Agilent 7900 ICP-MS system (Agilent Technologies, Tokyo, Japan). The sample introduction system was comprised of an autosampler, a double-pass spray chamber with Peltier system, a glass concentric nebulizer (MicroMist low-flow nebulizer, Glass Expansion, West Melbourne, Australia), and a quartz torch.
Quantification of copper concentrations was achieved using Agilent ICP-MS MassHunter 5.1, (Version D.01.01 Agilent Technologies, Tokyo, Japan). The parameters for the ICP-MS device were as follows: RF Power, 1550 W; Sample Depth, 8; Carrier Gas, 1.1 L/min; Nebulizer Pump […]
Roswell Park Memorial Institute 1640 medium (RPMI), fetal bovine serum (FBS), penicillin, and streptomycin were purchased from Invitrogen Thermo Fisher.
Ovarian tumour NCI/ADR-RES cells, obtained from the European Collection of Authenticated Cell Cultures (ECACC), were cultured at 37 °C in a 5% CO2 atmosphere in RPMI medium containing 10% FBS and supplemented with 50 U/mL penicillin and 50 U/mL streptomycin, in 75 cm2 cell culture flasks. All cell experiments were performed at 37 °C in a 5% CO 2 atmosphere with this modified RPMI, referred as “medium” or “culture medium”.
7.3. […]
The culture medium was then replaced with 3 mL of fresh medium containing 1 µM of the compound [Cu(II) (CuCl₂·2H₂O), cyclopeptide ( 1 or 2), or metallopeptide system [1/Cu(II) or 2/Cu(II); 1 eq. cyclopeptide + 1 eq. […] Lysates were digested at 95 °C overnight, diluted with 1% HNO₃ to a final volume of 5 mL, and analyzed by ICP-MS. The Cu(II) content in the culture medium (3 mL) was also measured using the same technique, yielding a value of 41.46 ng. […]

In assay [4] the test system is SF-268 (human glioma). Conditions: 72 h.
Source text: as §1, §2, §3, §4, §5, §6, §7, §8, §9, §10, §11, §12, §13, §14, §15, §16, §17, §18, §19
were performed with triplicate points.
b) Crystal violet cell staining
as §20, §21, §22, §23, §24, §25, §26, §27, §28, §29, §30, §31, §32, §33, §34, §35, §36
Assay [5] deals with NCI/ADR-RES cells. Nature of the assay: Intracellular ROS generation (ROS Assay Stain 1X). It counts as cell-based. Conditions: 100 μM compound with 125 μM H2O2, 1-5 h and 24 h, 1/Cu(II) equimolar. As to the method: Measurement of intracellular ROS levels in NCI/ADR-RES cells treated with Cu(II) ions, cyclopeptide 1, or the 1/Cu(II) metallopeptide system confirmed a time-dependent increase in the level of ROS generation. In short, after 24 h of incubation, cells were stained with ROS Assay Stain 1× and treated with 100 μM Cu(II) (CuCl2·2H2O), cyclopeptide 1, or 1/Cu(II), along with 125 μM H2O2, and fluorescence was recorded (λex = 495/λem = 520 nm) every hour for the first 5 h and again at 24 h. The experiment with the metallopeptide system was conducted by using equimolar amounts of cyclopeptide 1 and Cu(II) to prevent an excess of free copper in the medium. […] The cytotoxicity of the metallopeptide systems appears to be closely linked to their ability to enhance intracellular oxidative stress via increased ROS production, likely driven by Cu(II) accumulation within the cells.
9.2. […]
NCI/ADR-RES cells were seeded in a 96 well plate (Thermo Scientific 165305) at a density of 2,5 x 10^5 cells/ml. […] The fluorescence was measured in a microplate reader every hour for the first 5 hours, and again at 24 hours after the addition of the compounds (λex= 495 nm / λem= 520 nm). […]
Figure S15. […] Fluorescence (λex= 495 nm / λem= 520 nm) was recorded every hour for the first 5 hours, and again at 24 hours after the addition of the compounds to assess intracellular ROS generation. […]

Turning to `N=C(N)NCCC[C@@H]1NC(=O)c2ccc(nc2)-c2ccc(cn2)NC(=O)CCNC(=O)[C@H](CCCNC(=N)N)NC(=O)[C@H](CCCNC(=N)N)NC(=O)[C@H](CCCNC(=N)N)NC(=O)c2ccc(nc2)-c2ccc(cn2)NC(=O)CCNC(=O)[C@H](CCCNC(=N)N)NC(=O)[C@H](CCCNC(=N)N)NC1=O` [compound 1, cyclo-(βAlaBpy-Arg3)2] (cyclo([X1]RRR[βAla][X1]RRR[βAla])), the “E max (maximum % cell inhibition)” value was 24 ± 2% in assay [1], 32 ± 2% in assay [2] and 45 ± 2% in assay [4]. Moreover, the IC50 in assay [1], in assay [2] and in assay [4] was more than 100 µM each time. Further, the “intracellular Cu(II) accumulation (ICP-MS)” value in assay [3] was “notably lower than that of the metallopeptide systems”. Further, the “intracellular ROS levels (fluorescence)” value in assay [5] is “also promotes ROS generation, albeit to a lesser extent”.
